Data taken from PMC11864979, “First-in-class ultralong-target-residence-time p38α inhibitors as a mitosis-targeted therapy for colorectal cancer” (Nature Cancer, 2025).
Read-outs that look alike come from different tables or passages of the source.

Assays:
Experiment in all cases: selectivity profiling in a panel of 340 wild-type kinases (Reaction Biology Europe)
Format in all cases: binding
340 wild-type kinases [1] = molecular target: T1, 340 wild-type kinases (Homo sapiens, UniProt Q8IU85)
T1 construct: purchased Reaction Biology Europe
T1 sequence (Q8IU85 whole entry): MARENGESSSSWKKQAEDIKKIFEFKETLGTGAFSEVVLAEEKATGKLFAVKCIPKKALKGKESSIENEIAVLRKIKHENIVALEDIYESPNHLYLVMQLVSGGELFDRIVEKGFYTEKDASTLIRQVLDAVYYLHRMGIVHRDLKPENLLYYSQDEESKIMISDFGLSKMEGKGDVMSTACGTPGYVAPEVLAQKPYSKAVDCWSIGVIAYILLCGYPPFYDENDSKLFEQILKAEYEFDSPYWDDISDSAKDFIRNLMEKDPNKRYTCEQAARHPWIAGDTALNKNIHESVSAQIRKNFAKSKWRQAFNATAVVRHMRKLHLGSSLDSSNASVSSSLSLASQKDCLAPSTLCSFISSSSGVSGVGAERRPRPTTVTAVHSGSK

340 wild-type kinases [2] = molecular target: T2, 340 wild-type kinases (Homo sapiens, UniProt Q9H093)
T2 construct: purchased Reaction Biology Europe
T2 sequence (Q9H093 1-628): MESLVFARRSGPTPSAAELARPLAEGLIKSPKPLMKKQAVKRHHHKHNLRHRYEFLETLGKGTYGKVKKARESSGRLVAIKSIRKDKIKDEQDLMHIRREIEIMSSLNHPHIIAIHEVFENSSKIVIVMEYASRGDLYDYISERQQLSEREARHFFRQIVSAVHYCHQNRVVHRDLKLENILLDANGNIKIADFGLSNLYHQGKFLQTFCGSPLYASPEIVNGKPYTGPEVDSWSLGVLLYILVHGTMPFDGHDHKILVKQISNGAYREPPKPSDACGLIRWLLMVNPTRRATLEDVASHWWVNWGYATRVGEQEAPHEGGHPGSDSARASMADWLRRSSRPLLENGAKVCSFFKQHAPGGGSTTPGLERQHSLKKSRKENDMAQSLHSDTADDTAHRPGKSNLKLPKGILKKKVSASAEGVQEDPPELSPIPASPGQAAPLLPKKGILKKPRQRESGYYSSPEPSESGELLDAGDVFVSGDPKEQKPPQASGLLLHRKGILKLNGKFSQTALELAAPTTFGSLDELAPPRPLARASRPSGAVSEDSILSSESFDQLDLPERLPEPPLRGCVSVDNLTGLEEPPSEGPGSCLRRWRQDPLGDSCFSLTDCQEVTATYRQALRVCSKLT

340 wild-type kinases [3] = molecular target: T3, 340 wild-type kinases (Homo sapiens, UniProt Q9H3Y6)
T3 construct: purchased Reaction Biology Europe
T3 sequence (Q9H3Y6 whole entry): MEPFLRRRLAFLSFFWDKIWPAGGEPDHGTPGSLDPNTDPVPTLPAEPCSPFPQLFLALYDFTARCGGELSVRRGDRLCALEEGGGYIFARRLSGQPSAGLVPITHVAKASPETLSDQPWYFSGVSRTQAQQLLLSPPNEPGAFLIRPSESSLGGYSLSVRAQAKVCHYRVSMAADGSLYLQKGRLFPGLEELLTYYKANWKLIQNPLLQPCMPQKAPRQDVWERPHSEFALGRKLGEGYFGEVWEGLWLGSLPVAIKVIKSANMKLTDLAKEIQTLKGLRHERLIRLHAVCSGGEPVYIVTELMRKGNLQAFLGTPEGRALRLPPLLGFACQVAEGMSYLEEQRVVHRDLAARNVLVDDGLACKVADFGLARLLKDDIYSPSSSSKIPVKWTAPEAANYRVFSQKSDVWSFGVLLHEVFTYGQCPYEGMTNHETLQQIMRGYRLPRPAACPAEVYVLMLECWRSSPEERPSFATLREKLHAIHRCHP

340 wild-type kinases [4] = molecular target: T4, 340 wild-type kinases (Homo sapiens, UniProt P10721)
T4 construct: purchased Reaction Biology Europe
T4 sequence (P10721 26-976): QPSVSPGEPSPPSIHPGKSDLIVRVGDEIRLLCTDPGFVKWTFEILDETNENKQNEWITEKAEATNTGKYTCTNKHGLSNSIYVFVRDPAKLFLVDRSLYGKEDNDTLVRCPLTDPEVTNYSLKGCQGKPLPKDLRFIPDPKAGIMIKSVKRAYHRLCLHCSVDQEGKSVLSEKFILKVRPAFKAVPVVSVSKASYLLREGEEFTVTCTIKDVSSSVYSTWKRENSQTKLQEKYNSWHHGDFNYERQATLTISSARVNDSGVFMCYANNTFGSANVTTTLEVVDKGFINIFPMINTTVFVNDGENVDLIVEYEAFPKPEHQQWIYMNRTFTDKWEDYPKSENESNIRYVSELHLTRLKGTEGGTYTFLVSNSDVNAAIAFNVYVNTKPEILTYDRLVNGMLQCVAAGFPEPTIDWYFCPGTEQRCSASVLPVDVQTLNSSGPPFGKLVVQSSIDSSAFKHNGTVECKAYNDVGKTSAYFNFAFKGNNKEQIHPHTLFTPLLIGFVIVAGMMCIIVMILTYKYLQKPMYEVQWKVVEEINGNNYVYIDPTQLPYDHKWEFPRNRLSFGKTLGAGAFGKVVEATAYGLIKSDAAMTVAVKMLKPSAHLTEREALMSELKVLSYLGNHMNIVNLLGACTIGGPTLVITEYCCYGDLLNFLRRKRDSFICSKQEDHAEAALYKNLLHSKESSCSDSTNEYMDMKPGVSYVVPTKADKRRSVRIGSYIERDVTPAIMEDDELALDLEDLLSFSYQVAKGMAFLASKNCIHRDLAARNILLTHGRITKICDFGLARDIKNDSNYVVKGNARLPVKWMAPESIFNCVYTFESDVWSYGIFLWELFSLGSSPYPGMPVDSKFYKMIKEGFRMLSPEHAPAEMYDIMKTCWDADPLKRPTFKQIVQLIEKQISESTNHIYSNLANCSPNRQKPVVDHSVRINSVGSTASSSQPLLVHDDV

340 wild-type kinases [5] = molecular target: T5, 340 wild-type kinases (Homo sapiens, UniProt Q8TD08)
T5 construct: purchased Reaction Biology Europe
T5 sequence (Q8TD08 1-544): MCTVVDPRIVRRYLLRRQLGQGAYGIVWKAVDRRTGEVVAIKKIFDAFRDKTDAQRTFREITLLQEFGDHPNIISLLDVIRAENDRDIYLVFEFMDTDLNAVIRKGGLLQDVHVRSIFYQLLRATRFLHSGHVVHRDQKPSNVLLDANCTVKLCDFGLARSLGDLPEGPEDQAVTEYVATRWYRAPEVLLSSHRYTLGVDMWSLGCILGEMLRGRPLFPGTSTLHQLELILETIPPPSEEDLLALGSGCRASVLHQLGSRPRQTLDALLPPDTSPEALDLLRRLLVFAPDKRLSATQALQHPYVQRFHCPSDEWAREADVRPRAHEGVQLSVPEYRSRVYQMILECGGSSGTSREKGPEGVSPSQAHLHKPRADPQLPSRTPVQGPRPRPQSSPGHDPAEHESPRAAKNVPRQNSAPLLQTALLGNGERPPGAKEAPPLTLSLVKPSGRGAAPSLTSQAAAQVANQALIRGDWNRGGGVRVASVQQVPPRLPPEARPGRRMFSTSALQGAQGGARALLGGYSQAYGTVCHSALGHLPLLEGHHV

340 wild-type kinases [6] = molecular target: T6, 340 wild-type kinases (Homo sapiens, UniProt P41279)
T6 construct: purchased Reaction Biology Europe
T6 sequence (P41279 whole entry): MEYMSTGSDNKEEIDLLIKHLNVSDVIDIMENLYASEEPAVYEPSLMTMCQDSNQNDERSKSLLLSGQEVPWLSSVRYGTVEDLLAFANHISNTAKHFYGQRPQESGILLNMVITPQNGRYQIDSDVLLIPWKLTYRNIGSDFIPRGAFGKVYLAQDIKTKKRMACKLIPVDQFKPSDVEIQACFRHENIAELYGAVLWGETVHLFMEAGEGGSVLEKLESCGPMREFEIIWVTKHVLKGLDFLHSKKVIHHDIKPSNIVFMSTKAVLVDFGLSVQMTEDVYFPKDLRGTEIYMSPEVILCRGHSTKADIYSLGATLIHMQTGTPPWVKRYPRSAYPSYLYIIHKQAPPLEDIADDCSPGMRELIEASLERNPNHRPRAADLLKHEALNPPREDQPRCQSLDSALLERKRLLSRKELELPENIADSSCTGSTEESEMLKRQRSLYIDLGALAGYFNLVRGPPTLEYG

340 wild-type kinases [7] = molecular target: T7, 340 wild-type kinases (Homo sapiens, UniProt Q9Y2K2)
T7 construct: purchased Reaction Biology Europe
T7 sequence (Q9Y2K2 whole entry): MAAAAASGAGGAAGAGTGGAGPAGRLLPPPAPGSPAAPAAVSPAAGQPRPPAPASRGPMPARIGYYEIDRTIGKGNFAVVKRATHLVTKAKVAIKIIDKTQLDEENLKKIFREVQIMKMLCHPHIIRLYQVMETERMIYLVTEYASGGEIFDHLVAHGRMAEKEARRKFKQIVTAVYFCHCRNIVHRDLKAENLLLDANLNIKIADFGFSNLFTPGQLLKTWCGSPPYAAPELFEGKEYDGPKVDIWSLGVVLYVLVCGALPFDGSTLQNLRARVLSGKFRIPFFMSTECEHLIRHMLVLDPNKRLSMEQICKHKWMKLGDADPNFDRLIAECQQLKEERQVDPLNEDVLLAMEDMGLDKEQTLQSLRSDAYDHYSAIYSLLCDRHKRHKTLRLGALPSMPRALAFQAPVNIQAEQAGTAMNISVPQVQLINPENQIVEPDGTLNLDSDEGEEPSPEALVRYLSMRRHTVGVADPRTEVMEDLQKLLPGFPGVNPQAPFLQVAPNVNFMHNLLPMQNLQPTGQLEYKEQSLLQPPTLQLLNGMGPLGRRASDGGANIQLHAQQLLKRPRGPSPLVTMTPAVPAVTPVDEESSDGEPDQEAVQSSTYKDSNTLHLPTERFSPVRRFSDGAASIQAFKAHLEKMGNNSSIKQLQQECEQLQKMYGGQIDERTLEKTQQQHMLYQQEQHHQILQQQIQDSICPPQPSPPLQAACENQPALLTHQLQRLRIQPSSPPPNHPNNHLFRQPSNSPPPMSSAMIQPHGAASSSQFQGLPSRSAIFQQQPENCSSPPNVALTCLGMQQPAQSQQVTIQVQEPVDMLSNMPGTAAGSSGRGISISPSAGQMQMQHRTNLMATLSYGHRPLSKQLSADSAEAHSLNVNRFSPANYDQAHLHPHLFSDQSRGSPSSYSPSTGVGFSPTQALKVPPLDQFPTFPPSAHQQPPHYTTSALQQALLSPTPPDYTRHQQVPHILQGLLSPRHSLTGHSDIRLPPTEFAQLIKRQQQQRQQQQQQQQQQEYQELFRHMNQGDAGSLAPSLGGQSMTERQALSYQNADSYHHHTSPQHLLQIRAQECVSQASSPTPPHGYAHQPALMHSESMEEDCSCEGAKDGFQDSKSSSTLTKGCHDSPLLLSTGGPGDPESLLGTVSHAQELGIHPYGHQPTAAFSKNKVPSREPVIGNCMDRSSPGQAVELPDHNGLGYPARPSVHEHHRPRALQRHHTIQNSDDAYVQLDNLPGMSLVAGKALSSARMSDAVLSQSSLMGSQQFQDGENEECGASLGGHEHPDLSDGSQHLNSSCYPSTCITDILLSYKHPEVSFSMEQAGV

340 wild-type kinases [8] = molecular target: T8, 340 wild-type kinases (Homo sapiens, UniProt Q09013)
T8 construct: purchased Reaction Biology Europe
T8 sequence (Q09013 1-629): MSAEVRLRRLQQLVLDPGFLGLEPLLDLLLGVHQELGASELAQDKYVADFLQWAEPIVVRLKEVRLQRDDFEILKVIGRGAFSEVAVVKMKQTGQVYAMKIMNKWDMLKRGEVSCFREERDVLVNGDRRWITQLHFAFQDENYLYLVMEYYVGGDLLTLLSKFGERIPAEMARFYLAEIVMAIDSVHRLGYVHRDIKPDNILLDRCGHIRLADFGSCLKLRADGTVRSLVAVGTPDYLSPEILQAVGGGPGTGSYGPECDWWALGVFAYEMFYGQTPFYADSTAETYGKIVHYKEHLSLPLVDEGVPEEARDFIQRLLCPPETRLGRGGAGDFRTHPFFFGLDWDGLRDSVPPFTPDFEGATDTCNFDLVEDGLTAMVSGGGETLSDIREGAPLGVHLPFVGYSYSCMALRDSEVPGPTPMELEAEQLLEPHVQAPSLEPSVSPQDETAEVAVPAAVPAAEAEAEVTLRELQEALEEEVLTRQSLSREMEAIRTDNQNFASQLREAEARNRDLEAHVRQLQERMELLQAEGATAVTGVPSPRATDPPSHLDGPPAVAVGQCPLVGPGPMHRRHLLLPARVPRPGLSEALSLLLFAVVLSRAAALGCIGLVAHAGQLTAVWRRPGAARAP

340 wild-type kinases [9] = molecular target: T9, 340 wild-type kinases (Homo sapiens, UniProt P06213)
T9 construct: purchased Reaction Biology Europe

340 wild-type kinases [10] = molecular target: T10, 340 wild-type kinases (Homo sapiens, UniProt Q86V86)
T10 construct: purchased Reaction Biology Europe

`CNC(=O)c1ccc2c(c1)C(=O)c1ccc(Nc3ccc(F)c(NC(=O)C4CC4)c3)cc1CC2` [Compound 2015] gave a remaining activity at 0.2 µM (340 wild-type kinases [1]; 0.2 µM 2015, read-out: CAMK1D residual activity) of 100%, a remaining activity at 1 µM (340 wild-type kinases [1]; 1 µM 2015, read-out: CAMK1D residual activity) of 90.6% and a remaining activity at 0.2 µM (340 wild-type kinases [1]; CAMK1D, 0.2 µM, read-out: residual activity) of 100%. The remaining activity at 1 µM (340 wild-type kinases [1]; CAMK1D, 1 µM, read-out: residual activity) was 90.6%, the remaining activity at 0.2 µM (340 wild-type kinases [2]; 0.2 µM 2015, read-out: SNARK residual activity) was 97% and the remaining activity at 1 µM (340 wild-type kinases [2]; 1 µM 2015, read-out: SNARK residual activity) was 92.5%. The remaining activity at 0.2 µM (340 wild-type kinases [2]; SNARK, 0.2 µM, read-out: residual activity) was 97%, the remaining activity at 1 µM (340 wild-type kinases [2]; SNARK, 1 µM, read-out: residual activity) was 92.5% and the remaining activity at 0.2 µM (340 wild-type kinases [3]; 0.2 µM 2015, read-out: SRMS residual activity) was 96.9%. It also gave a remaining activity at 1 µM (340 wild-type kinases [3]; 1 µM 2015, read-out: SRMS residual activity) of 98.5%, a remaining activity at 0.2 µM (340 wild-type kinases [3]; SRMS, 0.2 µM, read-out: residual activity) of 96.9% and a remaining activity at 1 µM (340 wild-type kinases [3]; SRMS, 1 µM, read-out: residual activity) of 98.5%. The remaining activity at 0.2 µM (340 wild-type kinases [4]; 0.2 µM 2015, read-out: KIT residual activity) was 114%, the remaining activity at 1 µM (340 wild-type kinases [4]; 1 µM 2015, read-out: KIT residual activity) was 109% and the remaining activity at 0.2 µM (340 wild-type kinases [4]; KIT, 0.2 µM, read-out: residual activity) was 114%. It also gave a remaining activity at 1 µM (340 wild-type kinases [4]; KIT, 1 µM, read-out: residual activity) of 109%, a remaining activity at 0.2 µM (340 wild-type kinases [5]; 0.2 µM 2015, read-out: ERK7 residual activity) of 93% and a remaining activity at 1 µM (340 wild-type kinases [5]; 1 µM 2015, read-out: ERK7 residual activity) of 82.2%. It also gave a remaining activity at 0.2 µM (340 wild-type kinases [5]; ERK7, 0.2 µM, read-out: residual activity) of 93%, a remaining activity at 1 µM (340 wild-type kinases [5]; ERK7, 1 µM, read-out: residual activity) of 82.2% and a remaining activity at 0.2 µM (340 wild-type kinases [6]; 0.2 µM 2015, read-out: COT residual activity) of 98.6%. It also gave a remaining activity at 1 µM (340 wild-type kinases [6]; 1 µM 2015, read-out: COT residual activity) of 97.4%, a remaining activity at 0.2 µM (340 wild-type kinases [6]; COT, 0.2 µM, read-out: residual activity) of 98.6% and a remaining activity at 1 µM (340 wild-type kinases [6]; COT, 1 µM, read-out: residual activity) of 97.4%. The remaining activity at 0.2 µM (340 wild-type kinases [7]; 0.2 µM 2015, read-out: SIK3 residual activity) was 101%, the remaining activity at 1 µM (340 wild-type kinases [7]; 1 µM 2015, read-out: SIK3 residual activity) was 95.7% and the remaining activity at 0.2 µM (340 wild-type kinases [7]; SIK3, 0.2 µM, read-out: residual activity) was 101%. It also gave a remaining activity at 1 µM (340 wild-type kinases [7]; SIK3, 1 µM, read-out: residual activity) of 95.7%, a remaining activity at 0.2 µM (340 wild-type kinases [8]; 0.2 µM 2015, read-out: DMPK residual activity) of 82.9% and a remaining activity at 1 µM (340 wild-type kinases [8]; 1 µM 2015, read-out: DMPK residual activity) of 90.2%. It also gave a remaining activity at 0.2 µM (340 wild-type kinases [8]; DMPK, 0.2 µM, read-out: residual activity) of 82.9%, a remaining activity at 1 µM (340 wild-type kinases [8]; DMPK, 1 µM, read-out: residual activity) of 90.2% and a remaining activity at 0.2 µM (340 wild-type kinases [9]; 0.2 µM 2015, read-out: INSR residual activity) of 99.9%. The remaining activity at 1 µM (340 wild-type kinases [9]; 1 µM 2015, read-out: INSR residual activity) was 99.3%, the remaining activity at 0.2 µM (340 wild-type kinases [9]; INSR, 0.2 µM, read-out: residual activity) was 99.9% and the remaining activity at 1 µM (340 wild-type kinases [9]; INSR, 1 µM, read-out: residual activity) was 99.3%. For the same compound, the remaining activity at 0.2 µM (340 wild-type kinases [10]; 0.2 µM 2015, read-out: PIM3 residual activity) was 95.8%, the remaining activity at 1 µM (340 wild-type kinases [10]; 1 µM 2015, read-out: PIM3 residual activity) was 92.3% and the remaining activity at 0.2 µM (340 wild-type kinases [10]; PIM3, 0.2 µM, read-out: residual activity) was 95.8%. The remaining activity at 1 µM (340 wild-type kinases [10]; PIM3, 1 µM, read-out: residual activity) was 92.2%.
